According to publication PMC8853709, “Synthesis, computational studies, tyrosinase inhibitory kinetics and antimelanogenic activity of hydroxy substituted 2-[(4-acetylphenyl)amino]-2-oxoethyl derivatives” (Journal of Enzyme Inhibition and Medicinal Chemistry, 2019):
Entries after “also recorded” stand apart in the source; their conditions may differ. Read-outs that look alike come from different tables or passages of the source. Values belong to the compound of their own block, whether it stands above or below them.

What was measured:
[1] = target: T1, mushroom tyrosinase (EC 1.14.18.1) (Agaricus bisporus, UniProt C7FF04); assay: Mushroom tyrosinase inhibition assay (L-DOPA, dopachrome absorbance); assay type: biochemical, Agaricusbisporus
T1 construct: purchased Sigma Chemical Co., ST; Louis, MO
T1 sequence (C7FF04 2-392): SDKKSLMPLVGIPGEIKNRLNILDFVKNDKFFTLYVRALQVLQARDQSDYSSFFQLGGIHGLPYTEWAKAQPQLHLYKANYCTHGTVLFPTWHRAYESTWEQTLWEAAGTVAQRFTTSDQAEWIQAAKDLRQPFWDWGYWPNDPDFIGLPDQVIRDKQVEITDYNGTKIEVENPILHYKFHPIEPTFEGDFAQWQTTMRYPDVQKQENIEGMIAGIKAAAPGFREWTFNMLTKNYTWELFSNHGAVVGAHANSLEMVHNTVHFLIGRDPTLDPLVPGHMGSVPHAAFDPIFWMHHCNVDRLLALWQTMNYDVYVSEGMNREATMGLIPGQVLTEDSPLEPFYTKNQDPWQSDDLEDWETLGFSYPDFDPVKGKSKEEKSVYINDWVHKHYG
Experimental: The mushroom tyrosinase (EC 1.14.18.1) (Sigma Chemical Co., ST. Louis, MO) was used for in vitro bioassays as described previously with some modifications[39]^,[40]. Briefly, 140 µL of phosphate buffer (20 mM, pH 6.8), 20 µL of mushroom tyrosinase (30 U/mL) and 20 µL of the inhibitor solution were placed in the wells of a 96-well micro plate. After pre-incubation for 10 min at room temperature, 20 µL of L-DOPA (3,4-dihydroxyphenylalanine) (0.85 mM) was added and the plate was further incubated at 25 °C for 20 min. Subsequently the absorbance of dopachrome was measured at 492 nm using a micro plate reader (OPTI Max, Tunable). Kojic acid was used as a reference inhibitor and for negative tyrosinase inhibitor phosphate buffer was used instead of the inhibitor solution. The extent of inhibition by the test compounds was expressed as the percentage of concentration necessary to achieve 50% inhibition (IC50). Each concentration was analysed in three independent experiments run in triplicate. The IC50 values were determined by the data analysis and graphing software Origin 8.6, 64-bit.

mushroom tyrosinase = target: T2, mushroom tyrosinase (Agaricus bisporus, UniProt C7FF04); assay: Kinetic analysis of the inhibition of mushroom tyrosinase (Lineweaver–Burk, Dixon, enzyme concentration plots); assay type: biochemical, Agaricusbisporus; details: for type of inhibition (Lineweaver–Burk plot) / Ki: diphenolase activity, L-DOPA; for Ki: read-out: dissociation constant Ki (Dixon plot); for mode of binding (reversibility of enzyme–inhibitor complex): remaining enzyme activity versus enzyme concentration 1.25, 2.5 and 5 µg/mL
T2 construct: purchased Sigma Chemical Co., ST; Louis, MO
T2 sequence (C7FF04 2-392): as above
Experimental: To understand the mechanism of mushroom tyrosinase inhibition by compounds 5c and 5d, kinetic studies were conducted. […] Enzyme inhibition kinetics was analysed by Lineweaver–Burk plot and Dixon plots to determine the type of inhibition and inhibition constant (KI).
The inhibitory mechanism of mushroom tyrosinase by compounds 5c (in concentrations: 0.0, 0.0011, 0.0022, 0.0045, 0.0090 and 0.018 µM) and 5d (in concentrations: 0.0, 1.75, 3.5, 7.0, 14, 28 and 56 µM) were investigated.
A series of experiments were performed to determine the inhibition kinetics by following method[41]^,[42]. Inhibitor 5c with concentrations […], 0.0022, 0.0045, 0.009, 0.018 µM and 5d with concentrations 0.0, 1.75, 3.5, 7, 14 and 28 µM, respectively, were used. Substrate L-DOPA concentration was among 0.0625–2 mM in all kinetic study. Pre-incubation and measurement time was the same as discussed in mushroom tyrosinase inhibition assay protocol. The formation of DOPAchrome was continuously monitored at 475 nm for 5 min at a 30 s interval in the microplate reader after addition of enzyme. The inhibition type on the enzyme was assayed by Lineweaver–Burk plots of inverse of velocities (1/V) versus inverse of substrate concentration 1/[S] mM^−1, and the inhibition constant Ki was determined by the Dixon plot of 1/V versus inhibitor concentrations.

[2] = MTT cell viability assay and cell morphology; assay type: cell-based, murine; details: mouse, B16F10 murine melanoma cells, B16F10, 24 µg/ml, read-out: toxic effect in MTT cell viability assay, compared to control normalized to 100%
Experimental: (§1) To test the safety level of 5c compound, MTT assay (3-(4,5-dimethylthiazol-2-yl)-2,5-diphenyltetrazolium Bromide) was performed. The murine melanoma (B16F10) cells (1.5 × 10^5 cells/ml) were seeded in 24 well plates (SPL Korea) with DMEM medium at 37 °C and 5% CO2 incubator. Test compound 5c was dissolved in DMSO and diluted with culture medium to get the final concentrations of 0 (control), 6, 12 and 24 µg/ml, and then added to the cells for 24 h further incubation. The MTT assay was then conducted, and results were calculated in percentage of control. In addition, cellular images were taken by inverted fluorescent microscope (Nikon, ECLIPSE, Tokyo, Japan) to access the 5c effect on cell morphology.

[3] = tested on: murine melanoma (B16F10) cells; assay: MTT cell viability assay and cell morphology; assay type: cell-based; details: 24 h
Experimental: as §1

[4] = tested on: murine melanoma (B16F10) cells; assay: Melanin content measurement; assay type: cell-based
Experimental: For melanin measurement, melanoma (1.5 × 10^5) cells were seeded in cell culture plates for 24 h at 37 °C and 5% CO2incubator. Then cells were incubated with various concentrations of 5c in cell culture medium for further 24 h. Later, assay for melanin measurement was performed following already reported method. Briefly, the cells were trypsinised and centrifuged for 5 min at 1000 rpm. The cell pellet was dissolved in 1 N NaOH at 60 °C for 1 h and melanin content was measured spectrophotometrically at 405 nm wavelengths using a microplate reader (BioTek, synergy HT, Winooski, VT).

[5] = L-DOPA substrate, pH 6.8, 25 °C, read-out: Mushroom tyrosinase inhibition IC50

SMILES: CC(=O)c1ccc(NC(=O)COC(=O)c2ccc(O)cc2O)cc1 [Compound 3c, 2-[(4-Acetylphenyl)amino]-2-oxoethyl 2,4-dihydroxybenzoate]
- IC50 [1]: 145 ± 16.7 µM

SMILES: CC(=O)c1ccc(NC(=O)COC(=O)c2ccc(O)cc2)cc1 [Compound 3b, 2-[(4-Acetylphenyl)amino]-2-oxoethyl 4-hydroxybenzoate]
- IC50 [1]: 319 ± 31.9 µM

SMILES: CC(=O)c1ccc(NC(=O)COC(=O)c2cccc(O)c2)cc1 [Compound 3a, 2-[(4-Acetylphenyl)amino]-2-oxoethyl 3-hydroxybenzoate]
- IC50 [1]: 325 ± 16.9 µM

- IC50 [1, 5]: 0.0089 ± 0.0004 µM
- type of inhibition (Lineweaver–Burk plot) (mushroom tyrosinase): competitive inhibitor
- Ki (mushroom tyrosinase): 0.01 µM
- melting point: 236 to 238 °C
SMILES: CC(=O)c1ccc(NC(=O)COC(=O)/C=C/c2ccc(O)cc2O)cc1 [Compound 5c, 2-[(4-Acetylphenyl)amino]-2-oxoethyl (E)-3-(2,4-dihydroxyphenyl)acrylate]
- mode of binding (reversibility of enzyme–inhibitor complex) (mushroom tyrosinase): irreversibly bind; also recorded: irreversible mode of binding
- viability at 24 h, 24 µg/ml [2]: 33.7%
- effect on cell viability (MTT) ([3]; B16F10, 12 µg/ml): safe and no significant effect and nontoxic
- effect on cell morphology ([3]; B16F10, 3, 6, 12 µg/ml): no effect on cell morphology
- antimelanogenic activity ([4]; B16F10, 12 µg/mL): produced antimelenogenic effects
- cellular melanin content as compared to control normalized to 100% ([4]; B16F10, 12 µg/ml, 24 h): 82%

SMILES: CC(=O)c1ccc(NC(=O)COC(=O)C=Cc2ccccc2)cc1 [Compound 5a, 2-[(4-Acetylphenyl)amino]-2-oxoethyl cinnamate]
- IC50 [1]: 63.5 ± 2.5 µM

SMILES: CC(=O)c1ccc(NC(=O)COC(=O)/C=C/c2ccc(O)cc2)cc1 [Compound 5b, 2-[(4-Acetylphenyl)amino]-2-oxoethyl (E)-3-(4-hydroxyphenyl)acrylate]
- IC50 [1]: 97.3 ± 5.8 µM
- melting point: 226 to 228 °C

- IC50 [1, 5]: 8.26 ± 1.7 µM
- type of inhibition (Lineweaver–Burk plot) (mushroom tyrosinase): mixed-type inhibitor
- Ki (mushroom tyrosinase): 6 µM
SMILES: CC(=O)c1ccc(NC(=O)COC(=O)/C=C/c2ccc(Cl)cc2)cc1 [Compound 5d, 2-[(4-Acetylphenyl)amino]-2-oxoethyl-(E)-3-(4-chlorophenyl)acrylate]
- mode of binding (reversibility of enzyme–inhibitor complex) (mushroom tyrosinase): irreversibly bind; also recorded: irreversible inhibitor; also recorded: irreversible mode of binding

SMILES: CC(=O)c1ccc(NC(=O)CCl)cc1 [Compound 1]
- IC50 [1]: 54.5 ± 3.1 µM

SMILES: CC(=O)c1ccc(NC(=O)COC(=O)c2cc(O)cc(O)c2)cc1 [Compound 3e]
- IC50 [1]: 166 ± 14.2 µM
- melting point: 249 to 251 °C

SMILES: CC(=O)c1ccc(NC(=O)COC(=O)c2ccc(O)c(O)c2)cc1 [Compound 3d, 2-[(4-Acetylphenyl)amino]-2-oxoethyl 3,4-dihydroxybenzoate]
- IC50 [1]: 257 ± 23.4 µM
